From patent US7884071B2, “Administration form for pharmaceutically active peptides with sustained release and method for the production thereof” (Zentaris GmbH, priority 2002, dated 2011)
Where a name gives a salt, the structure may show the parent alone. Where a SMILES comes first, the peptide text is derived from it. [ ]: non-standard residue; d: D form. dPhe(4-Cl) = N[C@H](Cc1ccc(Cl)cc1)C(=O)O; d2Nal = N[C@H](Cc1ccc2ccccc2c1)C(=O)O; d(hCit) = NC(=O)NCCCC[C@@H](N)C(=O)O; NMeY = CN[C@@H](Cc1ccc(O)cc1)C(=O)O; d3Pal = N[C@H](Cc1cccnc1)C(=O)O; Nle = CCCC[C@H](N)C(=O)O

Experiment: Fig. 6: Physicochemical data on D-63 153
From the text: Table printed on a drawing sheet, Fig. 6
Title: Fig. 6: Physicochemical data on D-63 153
First reader's note: Unruled property list for a single peptide; the value of 'Structural formula:' is a chemical drawing and is left empty.

For `CCCC[C@H](NC(=O)[C@@H](CCCCNC(N)=O)NC(=O)[C@H](Cc1ccc(O)cc1)N(C)C(=O)[C@H](CO)NC(=O)[C@@H](Cc1cccnc1)NC(=O)[C@@H](Cc1ccc(Cl)cc1)NC(=O)[C@@H](Cc1ccc2ccccc2c1)NC(C)=O)C(=O)N[C@@H](CCCNC(=N)N)C(=O)N1CCC[C@H]1C(=O)N[C@H](C)C(N)=O` [D-63153 (e.g. acetate salt), Ac-D-Nal(2)-D-Cpa-D-Pal(3)-Ser-N-Me-Tyr-D-Hci- Nle-Arg-Pro-D-Ala-NH2] (Ac-[d2Nal][dPhe(4-Cl)][d3Pal]S[NMeY][d(hCit)][Nle]RP[dA]-NH2), the “Solubility:” value was 0.75 mg/ml in water.
